Measurements reported in PMC12550136, “Functional and structural characterization of F1 ‐ATPase with common ancestral core domains in stator ring” (Protein Science : A Publication of the Protein Society, 2025).

System: T1, F1 ^anc_core
T1 construct: gene atpD; alpha: TF1 residues 1-94 + alpha^anc NBD/CTD; beta: TF1 residues 1-78 + beta^anc NBD/CTD; N-terminal His-tags; alpha3beta3gamma; expressed in E. coli JM103 delta-unc; with ATP synthase gamma chain
Assay: single-molecule rotation assay, […] nm gold colloid, Michaelis-Menten fit
Format: biochemical, synthetic construct
Conditions: 50 mM Hepes-KOH pH 7.5, 100 mM KCl

Km (5 mM MgCl2, ATP-regenerating system, room temperature)	Km (5 mM MgCl2, room temperature)	SMILES
2.6 µM		Nc1ncnc2c1ncn2[C@@H]1O[C@H](COP(=O)(O)OP(=O)(O)OP(=O)(O)O)[C@@H](O)[C@H]1O [ATP]
	0.68 µM	Nc1ncnc2c1ncn2[C@@H]1O[C@H](COP(=O)(O)OP(=O)(O)OP(O)(O)=S)[C@@H](O)[C@H]1O [ATPγS]
